Data taken from patent US20080207766A1, “METHODS AND COMPOSITIONS FOR TREATING AT LEAST ONE UPPER GASTROINTESTINAL SYMPTOM” (AGI Therapeutics Research Ltd., priority 2007, published 2008).
Structures can show the parent of a compound that is named as a salt.

Tests used:
[1] = Pharmacokinetics of oral conventional formulation in adults (Young et al.); type: in vivo, human
Description: Bear et al., Am. J. Physiol., 186, 180-86 (1956). […] Young et al., Clinical Therapeutics, 23(4) (2001). […] The typical dose used for treating hypertensive subjects is about 25 mg/day, and is dosed using conventional formulations.

[2] = system: patients with functional diarrhea; test: Clinical study, randomized double-blind placebo-controlled forced dose escalation, 12 weeks; type: in vivo, human
Text: While functional diarrhea is a condition dominated by altered lower bowel function associated with chronic diarrhea, it is also associated with upper gastrointestinal related symptoms such as nausea. For instance, patients suffering from similar lower bowel functional conditions such as IBS ([…]) have a reported incidence of nausea of 32%-other conditions also have relatively high baseline incidences of nausea, i.e., functional dyspepsia 39%, oesophagitis 17%, duodenal ulcer 34%, gastric ulcer 39%, gallstone disease 28%, alcohol related dyspepsia 37%, and gastric cancer 48%. […], ABC of the Upper Gastrointestinal Tract Anorexia, Nausea, Vomiting and Pain, 323 BMJ (8 Dec. 2001). […] Eighty-two patients (both male and female) meeting ROME II criteria (modified) for Functional Diarrhea were randomized in the study. Using an intent-to-treat analysis and the entire 12 weeks of dose-escalation therapy, the incidence of nausea in the placebo group was 20%, indicating a relatively high baseline of nausea for that condition.

[3] = cited from earlier work
[4] = expected from Young et al. data, conventional formulation
[5] = 2.5 mg dose, conventional formulation, adults
[6] = 7.5 mg dose, conventional formulation, adults

expected peak plasma concentration ([1]; about 25 mg/day dose for hypertensive subjects, conventional formulations) | 24 hour plasma concentration level as share of peak plasma concentration [1, 4] | time for which about 50% of the peak plasma concentration is maintained [1, 4] | SMILES | changes in blood pressure ([2]; FIGS. 1 and 2, over the course of the study) | incidence of nausea ([2]; intent-to-treat, entire 12 weeks, once daily 2 then 4 then 6 mg/day, placebo 20%) | maximum plasma concentration (Cmax) [3, 5] | time to achieve the highest plasma concentration (Tmax) [3, 5] | Cmax [3, 6] | Tmax [3, 6] | absorption from the gastrointestinal tract ([3]; dosed orally, conventional formulations (Bear et al.))
about 78.9 ng/mL | less than 25% | about 14 hours | CNC1(C)C2CCC(C2)C1(C)C (racemic) [mecamylamine] | no clinically significant changes | 9% |  |  |  |  | 
 |  |  | CNC1(C)C2CCC(C2)C1(C)C (stereo not shown) [mecamylamine hydrochloride, N-2,3,3-tetramethylbicyclo[2.2.1]heptan-2-amine hydrochloride] |  |  | about 7.89 ng/mL | 3.11 h | 23.68 ng/mL | 3.04 h | nearly completely and rapidly absorbed
